Measured values from patent US20200190101A1, “Composition Containing Novel Glutamic Acid Derivative And Block Copolymer, And Use Thereof” (Nippon Kayaku Kabushiki Kaisha, priority 2015, published 2020).

Legend:
[1] = test system: SK-OV-3 cells having low GGT activity; experiment: cells; format: cell-based; details: Homo sapiens; SK-OV-3 cells, 10 μM, 6 hours exposure then 3 days incubation; read-out: Cell proliferation inhibitory activity
Procedure: After the cells were incubated for 6 hours, the interior of the wells was washed, and after the cells were further incubated for 3 days, the cells were immobilized with methanol and stained using Methylene Blue dye. After staining, the dye was extracted with a 0.3% aqueous solution of hydrochloric acid was extracted, and the light absorbance at 660 nm was measured. For the light absorbance thus obtained, the cell proliferation suppressive activity was evaluated based on the reduction ratio for the light absorbance measured from cells to which the compound was not added.
By a similar operation, the cell proliferation suppressive activity was evaluated from the light absorbance, using doxorubicin that was not converted to a glutamic acid derivative. The results are shown in FIG. 1 (OS-RC-2 cells having high GGT activity) and FIG. 2 (SK-OV-3 cells having low GGT activity).
The cell proliferation inhibitory activity of the EHC-bonded glutamic acid derivative according to Synthesis Example 6 was evaluated using OS-RC-2 cells (RIKEN BioResource Center), which are known to have high GGT activity, and SK-OV-3 cells (American Type Culture Collection), which are known to have low GGT activity.
On a 96-well plate, OS-RC-2 cells having high GGT activity and SK-OV-3 cells having low GGT activity were each inoculated in an amount of 4,000 cells/well and were incubated for one day at 37° C. and 5% CO2, and then the EHC prodrug according to Synthesis Example 6 was added to the cells at a final concentration of 0.0001 to 1 μM. After the cells were incubated for 6 hours, the interior of the wells was washed, and the cells were further incubated for 3 days. After the incubation, the cells were immobilized with methanol and were stained using Methylene Blue dye. After staining, the dye was extracted with a 0.3% aqueous solution of hydrochloric acid, and the light absorbance at 660 nm was measured. The cell proliferation suppressive activity was evaluated based on the reduction ratio for the light absorbance thus obtained, with respect to the light absorbance measured from cells to which the compound was not added.
By a similar operation, EHC, which was an active ingredient of Synthesis Example 6, was used without modification, and the cell proliferation suppressive activity was evaluated from the light absorbance.

[2] = test system: OS-RC-2 cells having high GGT activity; format: cell-based, human; details: GGsTop 10 μM, compound 0.039 to 10 μM
Procedure: OS-RC-2 cells were inoculated by a method similar to that of Test Example 3. […] After the cells were incubated for 6 hours, the interior of the wells was washed, and after the cells were further incubated for 3 days, the cell proliferation suppressive activity was evaluated by a method similar to that of Test Example 3.
By a similar operation, the cell proliferation suppressive activity was evaluated using doxorubicin that was not glutamic acid-derivatized, from the light absorbance of the compound.
The GGT activity dependency of the cell proliferation inhibitory activity of the EHC-bonded glutamic acid derivative according to Synthesis Example 6 was evaluated using OS-RC-2 cells having high GGT activity.
OS-RC-2 cells were inoculated by a method similar to that of Test Example 10. After the cells were incubated for one day, GGsTop (Wako Pure Chemical Industries, Ltd.), which is a GGT inhibitor, was added to the cells at a final concentration of 10 μM, and the cells were incubated for one hour. Subsequently, the EHC-bonded glutamic acid derivative according to Synthesis Example 6 was added to the cells at a final concentration of 0.0001 to 1 μM. After the cells were incubated for 6 hours, the interior of the wells was washed, and after the cells were incubated for 3 days, the cell proliferation suppressive activity was evaluated by a method similar to that of Test Example 10.
By a similar operation, the cell proliferation suppressive activity was evaluated using EHC, which is the active ingredient of Synthesis Example 6, from the light absorbance of the compound.

[3] = test system: human ovarian cancer SHIN-3 tumors; experiment: Test on antitumor effect of Synthesis Example 1, SHIN-3 tumors; format: in vivo; details: three times at an interval of 7 days
Procedure: By an operation similar to that of Test Example 12, human ovarian cancer SHIN-3 tumors were subcutaneously transplanted into SCID mice, and tumor engraftment was confirmed.
After the administration, the major axis (L) and the minor axis (W) of a tumor were measured using calipers at an interval of 2 to 3 days, the tumor volume was calculated by the formula: (L×W^2)/2, and the tumor volume change rate from the administration initiation day was determined.

## COc1cccc2c1C(=O)c1c(O)c3c(c(O)c1C2=O)C[C@@](O)(C(=O)CO)CC3OC1CC(NC(=O)OCc2ccc(NC(=O)CCC(N)C(=O)O)cc2)C(O)C(C)O1 (stereo partly drawn) [Synthesis Example 1, (((4-((S)-4-amino-4-carboxybutanamide)benzyl)oxy)carbonyl)doxorubicin]
[1]
  inhibition at 10 µM: 13%
[2]
  Effect of GGT inhibitor on cell proliferation suppressive activity: completely inhibited the activity
[3]; 20 mg/kg-administered group, i.v.
  Antitumor effect (relative tumor volume) versus control drug: antitumor effect that was equivalent to that of the control drug
[3]; 5 or 20 mg/kg i.v.
  Antitumor effect (relative tumor volume): dose-dependent antitumor effect
